Experimental data as given in patent US20220280548A1, “COMBINATION THERAPY FOR SPINAL MUSCULAR ATROPHY” (Biogen MA Inc., priority 2019, published 2022).
Entries after “also recorded” stand apart in the source; their conditions may differ.

System: neonatal (P0-P1) SMA mice having a human SMN2 transgene
Assay: Body weight and righting reflex in neonatal SMA mice given nusinersen and/or AAV-SMN1 (Example 9)
Assay type: in vivo
Details: monotherapy, single dose
Description: Nusinersen and AAV-SMN1 were administered to neonatal (P0-P1) SMA mice having a human SMN2 transgene. A low or high dose of nusinersen (1 μg and 3 μg respectively) was administered to the mice along with a low or high dose of AAV-SMN1 (1×10^10 GC or 3×10^10 GC respectively) at birth (P0-P1). The mice body weight and righting reflex were measured and compared to the body weight and righting reflex of control mice of the same genotype having received either nusinersen or AAV-SMN1 alone.
[…]

With “nusinersen (antisense UCACUUUCAUAAUGCUGG; 2'-O-MOE, phosphorothioate, chemistry not fully specified) [uniformly modified 2′-O-(2-methoxyethyl) phosphorothioate antisense oligonucleotide consisting of 18 nucleotide residues, targets intron 7 of SMN2 pre-mRNA]” the “rescue of motor function (righting reflex)” value (PND 16) was “full rescue”, the “rescue of motor function (righting reflex)” value (postnatal day (PND) 8) was “partially rescues; also recorded: partial rescue” and the body weight (relative to WT control) was “lags behind the WT control”.
